Results published in US8158317B2, “Azo dye compound, coloring composition, ink sheet for thermal transfer recording, thermal transfer recording method, color toner, ink for inkjet, and color filter” (FUJIFILM Corporation, priority 2006, dated 2012).

Columns and labels:
Assay type in all cases: physicochemical
[1] = Maximum absorption wavelength of the absorption spectrum in ethyl acetate solution; conditions: for Maximum Absorption Wavelength: concentration 1×10^−6 mol/L, optical path length 10 mm; for λmax: stated in the production example
Text: The maximum absorption wavelength of the absorption spectrum in an ethyl acetate solution (concentration 1×10^−6 mol/L; optical path length, 10 mm) of these compounds is shown in Table 1 below.

[2] = Dye solubility when preparing the coating composition for dye-donating layer formation (ink sheet); set-up: key: A (soluble easily); B (soluble); C (soluble but hardly); conditions: dye in coating composition with polyvinylbutyral resin, methyl ethyl ketone/toluene (1/1); three ranks
Text: A polyester film (Lumirror, Toray's trade name) having a thickness of 6.0 μm and coated with a thermoplastic acrylic resin (thickness, 1 μm) for heat-resistant lubrication on the back thereof was used as a support. The following coating composition for dye-donating layer formation was applied onto the surface of the support film, in a mode of wire bar coating, thereby forming a coating layer having a dry thickness of 1 μm thereon to give an ink sheet 1.
(Coating Composition for Dye-donating Layer Formation)
Next, ink sheets 2 to 5 of the invention and comparative ink sheets 6 to 8 were formed in the same manner as that for the ink sheet 1 but using the dye shown in Table 2 below in place of Compound (1). In this process, the dye solubility was evaluated in three ranks; A (soluble easily), B (soluble), C (soluble but hardly).

[3] = Light stability (lightfastness) of thermal transfer images under Xe light; conditions: Xe light (17000 lux) for 7 days; density retentiveness ratio to original reflection density 1.0; three ranks
Description: Next, the recorded thermal transfer image-receiving materials were exposed to an Xe light (17000 lux) for 7 days and tested for the light stability (lightfastness) of the images. After the exposure, the status A reflection density of the part originally having a status A reflection density of 1.0 was measured, and the image stability was indicated by the density retentiveness ratio (percentage) to the original reflection density 1.0 before exposure. The samples were evaluated in three ranks, A (from 80% to less than 100%), B (from 60% to less than 80%), and C (less than 60%).

SMILES	Maximum Absorption Wavelength [1]	Solubility [2]	Lightfastness [3]	λmax [1]
CN(C)C(=O)n1c(/N=N/c2c(C(C)(C)C)nn(C)c2N)nc(C#N)c1C#N [(2)]	439 nm	A	A (A (from 80% to less than 100%))	–
Cn1nc(C(C)(C)C)c(/N=N/c2nc(C#N)c(C#N)n2C(=O)c2ccccc2)c1N [(4)]	454 nm	A	A (A (from 80% to less than 100%))	–
CCN(CC)C(=O)n1c(/N=N/c2ccc(N(CC)CC)cc2NC(C)=O)nc(C#N)c1C#N [Comparative Dye 2, reference compound]	–	A	B (B (from 60% to less than 80%))	–
CC(=O)n1c(/N=N/c2c(C(C)(C)C)nn(C)c2N)nc(C#N)c1C#N [(3)]	452 nm	A	A (A (from 80% to less than 100%))	–
CC(C)(C)c1nn(-c2ccccc2)c(N)c1/N=N/c1ccc([N+](=O)[O-])cc1 [Comparative Dye 1, reference compound]	–	B	B (B (from 60% to less than 80%))	–
CCCCN(CCCC)C(=O)c1ccc2c(c1)C(=O)C(c1nc3ccc(C(C)C)cc3cc1O)C2=O (stereo not drawn) [Comparative Dye 5, reference compound]	–	B	A (A (from 80% to less than 100%))	–
Cn1nc(C(C)(C)C)c(/N=N/c2nc(C#N)c(C#N)[nH]2)c1N [Comparative Dye 3, reference compound]	–	B	C (C (less than 60%))	432 nm
COC(=O)n1c(/N=N/c2c(C(C)(C)C)nn(C)c2N)nc(C#N)c1C#N [(5)]	451 nm	A	A (A (from 80% to less than 100%))	–
CCN(CC)C(=O)n1c(/N=N/c2c(C(C)(C)C)nn(C)c2N)nc(C#N)c1C#N [Compound (1)]	438 nm	A	A (A (from 80% to less than 100%))	438 nm
CCN(CCOc1ccc(C2CCCCC2)cc1)c1ccc(C=C(C#N)C#N)c(C)c1 [Comparative Dye 4, reference compound]	–	A	C (C (less than 60%))	–
